T1: PDC-109 (Bos taurus, UniProt P02784)
T1 construct: PDC-109, purified from bull seminal plasma, was kindly donated by J.J. Calvete; tissue gift of J.J. Calvete; host or cells: bull seminal plasma
T1 sequence (P02784 26-134): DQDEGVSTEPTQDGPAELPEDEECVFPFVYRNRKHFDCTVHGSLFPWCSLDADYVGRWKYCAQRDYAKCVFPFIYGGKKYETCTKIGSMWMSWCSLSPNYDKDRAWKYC

B1: PDC-109 (BSP-A1/-A2), main protein of bovine seminal plasma (natural protein, UniProt P02784 26-134, looked up)
chain: T1 sequence (P02784 26-134)
modifications: mixture of the glycosylated (O-linked trisaccharide, Neu5Ac-Hex-HexNAc) and non-glycosylated forms
notes: Native preparation; two closely spaced bands on SDS-PAGE (glycosylated and non-glycosylated forms); The same preparation was both immobilised and flowed over the chip; also called BSP-A2; source: purified from bull seminal plasma (donated by J.J. Calvete)

Experiments:
PDC-109 = target: T1, PDC-109; test: SPR binding profile and kinetics of PDC-109 on immobilized neo-glycoprobes; parameters: species or system bovine; conditions: for derived association (KA) constant / kd / ka: immobilized glycoprobe, PDC-109 6.25 to 100 μM, HBS-P pH 7.4, 25 °C, 1:1 Langmuir model; for kd / ka: 3 to 6 repeat experiments; for ka: 30 μL/min, CV exceeding 50% in particular cases; for binding to PDC-109 in words: immobilized probe, PDC-109 flown over
Source text: While the lipid selectivity and kinetics of PDC-109 has been characterized in considerable detail, its interaction with carbohydrate epitopes remains largely uncharted, despite its potential role in sperm reservoir formation in the female genital tract. We have therefore performed SPR experiments with PDC-109 and the most relevant mammalian glycotopes, particularly those containing Fuc epitopes. Once SPR sensor chips were functionalized with the different synthetic glycoprobes and evaluated with specific lectins (Section 2.1.2) they were used to characterize both qualitatively and quantitatively the interaction of PDC-109. For kinetic analysis, several concentrations in the 6.25 to 100 μM range were analyzed and a 1:1 Langmuir binding model was chosen for sensorgram fitting.
Data dispersion was attributable to the unusual sensorgrams observed, reflecting a complex binding event, particularly in the association phase of PDC-109. […] In a conventional, straightforward binding event, the response—i.e., the signal rise over time, reflecting protein binding to the sensor surface—reaches a constant value once equilibrium is established, and remains so until the protein solution passed over the sensor chip is replaced with buffer, giving way to the spontaneous dissociation process and subsequent surface regeneration.
Binding experiments were performed at 25 °C and 30 μL/min flow rate. […] Sensor surface was regenerated with a 60 μL-injection of specific carbohydrate (10 mM lac, 500 mM αMe-Man, 0.5 M αMe-Fuc, and 10 mM Sia) followed by a 60 μL-injection of NaCl 1 M.

Con A = Con A (Canavalia ensiformis, UniProt P02866); conditions: for ka1: SPR BIAcore 3000, glycoprobe immobilized on CM5 chip, HBS-P pH 7.4 + CaCl2 5 mM, MnCl2 1 mM; for ka1 / kd1 / ka2 / kd2: Con A 2.5-80 nM, bivalent model; for ka1 / kd1: first binding event; for KA1 / kd1 / ka2 / kd2: SPR; for KA1: affinity constant of first event, KA1 = ka1/kd1; for kd1 / ka2 / kd2: immobilized glycoprobe; for ka2 / kd2: second binding event
Description: Subsequently, glycoprobes displaying mannobioses only differing in their glycosidic linkage (Man-α1,2-Man, Man-α1,3-Man and Man-α1,6-Man) were immobilized on a sensor chip and their interaction with concanavalin A (Con A) was studied. Con A is a relatively complex lectin, organized as a β-barrel-like tetramer at pH > 7, each dimer subunit (D2 symmetry) with two CRDs situated on opposing faces of the protein. Sensorgrams of different Con A concentrations were recorded and kinetic constants determined by simultaneously fitting the experimental curves to a bivalent kinetic model (Figure 1). This model allows the first and second binding events to be separately described by two sets of rate constants (Table 2).
All SPR experiments were performed in a BIAcore 3000 instrument (GE Healthcare, Uppsala, Sweden) using carboxymethyl-functionalized CM5 or C1 sensor chips and HBS-P (0.01 M HEPES pH 7.4; 0.15 M NaCl; 0.005% v/v surfactant P20) as running buffer, supplemented when necessary with CaCl2 (5 mM) and MnCl2 (1 mM) or other competitive reagents/adjuvants such as bovine serum albumin (BSA), carboxymethyldextran (CMD) or polivinylpirrolidone (PVP). SPR sensorgram analysis and curve fitting were done with the BIAevaluation 4.1.1 sofware package (GE Healthcare, Uppsala, Sweden). In all experiments, specific binding responses were obtained by subtracting from each channel the reference channel response. Moreover, in most cases a double referencing was applied (i.e., reference Fc1 channel plus an internal reference standard, namely buffer injection subtraction).
For all immobilizations, the carboxyl functionalities of the CM5 (or C1) sensor chip surfaces were activated by injecting a mixture of 0.05 M NHS and 0.2 M EDC (1:1 v/v; 50 µL) at 5 µL/min. Then, glycopeptide solutions were passed at 1–2 mg/mL in 10 mM NaOAc for approximately 12 min over the activated surface. For immobilization, pH 4 or pH 6 conditions were used, as required. In the specific case of PDC-109, protein solution was passed at 0.05 µg/µL in 10 mM NaOAc pH 4 over the activated surface. Afterwards, unreacted groups on all chip surfaces were blocked with ethanolamine-HCl (1 M; pH 8.5; 60 µL) or H2O (60 µL). The difference, in resonance units (RU), between readings after surface activation and final response was converted into amount of immobilized glycopeptide (0.981 RU~1 pg/mm^2 for glycopeptides, 1 RU = 1 pg/mm^2 for proteins; see legend Table 6).
All kinetic measurements were carried out by running a manually programmed sequence of binding experiments using several protein range concentrations and two flow rates. Regeneration of the sensor surface was accomplished in a specific-manner by injecting the complementary carbohydrate (10 mM lac, 100–500 mM αMe-Man, 0.5 M αMe-Fuc or L-Fuc, 0.5 M GlcNAc, 0.5 M Glc, and 10 mM Sia). Alternatively, other procedures such as glycoprotein solutions (e.g., fetuin at 2–5 g/L), low pH-buffers (e.g., 10 mM glycine pH 1.5–2.5), high salt (e.g., 1 M NaCl), high pH or specific chemicals were also used to break the interaction.
For the evaluation of the sensor chips, binding experiments and kinetic studies were carried out with the various glycoprobes and specific well-characterized lectins (ECA, Con A, LTA, UEA-I, MAA, and SNA). Several concentrations of each lectin were prepared by serial 2/3-fold dilutions of the most concentrated sample in running buffer supplemented with CaCl2 (5 mM) and MnCl2 (1 mM). Thus, concentrations varied from 66 nM to 2.5 µM for ECA; from 2.5 to 80 nM for Con A; from 31.25 nM to 1 µM for LTA and UEA-I; from 250 nM to 1.9 µM for MAA and from 74 to 563 nM for SNA. Analyses were performed at 20 µL/min and kinetic studies at 10 and 40 μL/min. After lectin injection, the sample solution was replaced by running buffer and the dissociation phase was monitored for 3–6 min.

MAA = test: SPR binding and kinetics of MAA on immobilized sialic acid glycoprobes; parameters: species or system Maackia amurensis
SNA = SNA (Sambucus nigra, UniProt Q41358)
[1] = target: the molecule itself; test: SPR; PDC-109 immobilised on a CM5 chip (1645 RU, 10 mM NaOAc pH 4); 50 µM PDC-109 passed over at 20 µL/min; regeneration with 1 M NaCl; two replicates

Chain of SNA (Q41358 309-570 limits assumed): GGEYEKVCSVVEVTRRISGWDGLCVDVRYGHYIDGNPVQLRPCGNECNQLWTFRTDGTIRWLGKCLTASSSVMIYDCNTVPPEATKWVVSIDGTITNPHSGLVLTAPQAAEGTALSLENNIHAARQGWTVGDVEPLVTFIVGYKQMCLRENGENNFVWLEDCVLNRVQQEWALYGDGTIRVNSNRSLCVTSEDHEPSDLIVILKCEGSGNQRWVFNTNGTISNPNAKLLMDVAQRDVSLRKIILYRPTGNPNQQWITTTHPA
Chain of SNA (Q41358 29-290 partner limits assumed): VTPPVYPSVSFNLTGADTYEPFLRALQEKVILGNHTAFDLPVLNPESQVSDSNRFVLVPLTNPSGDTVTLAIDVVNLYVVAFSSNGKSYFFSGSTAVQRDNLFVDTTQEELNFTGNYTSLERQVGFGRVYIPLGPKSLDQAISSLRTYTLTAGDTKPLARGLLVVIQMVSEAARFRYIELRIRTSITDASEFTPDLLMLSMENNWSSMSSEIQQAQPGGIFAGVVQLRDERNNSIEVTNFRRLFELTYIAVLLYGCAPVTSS

| Molecule | derived association (KA) constant (PDC-109) | kd (PDC-109) | ka (PDC-109) | further results |
| --- | --- | --- | --- | --- |
| Fuc-α1,3-GlcNAc-Aoa(m)-GFKKG [neo-glycoprobe: Fuc-α1,3-GlcNAc oxime-ligated to the peptide module N[Me]-O-Aoa-GFKKG] | 237000 M⁻¹ | 0.00165 s⁻¹ | 763 M⁻¹ s⁻¹ |  |
| Fuc-α1,4-GlcNAc-Aoa(m)-GFKKG [neo-glycoprobe: Fuc-α1,4-GlcNAc oxime-ligated to the peptide module N[Me]-O-Aoa-GFKKG] |  | 8.83e-05 s⁻¹ | 2910 M⁻¹ s⁻¹ | binding to PDC-109 in words (PDC-109): highest binding affinity |
| Fuc-α1,6-GlcNAc-Aoa(m)-GFKKG [neo-glycoprobe: Fuc-α1,6-GlcNAc oxime-ligated to the peptide module N[Me]-O-Aoa-GFKKG] | 73100 M⁻¹ | 0.00345 s⁻¹ | 645 M⁻¹ s⁻¹ |  |
| Gal-β1,3-GlcNAc-Aoa(m)-GFKKG [neo-glycoprobe: Gal-β1,3-GlcNAc oxime-ligated to the peptide module N[Me]-O-Aoa-GFKKG] | 17000 M⁻¹ | 0.00756 s⁻¹ | 128 M⁻¹ s⁻¹ |  |
| Gal-β1,4-GlcNAc-Aoa(m)-GFKKG [neo-glycoprobe: Gal-β1,4-GlcNAc oxime-ligated to the peptide module N[Me]-O-Aoa-GFKKG] | 10000 M⁻¹ | 0.0086 s⁻¹ | 86.2 M⁻¹ s⁻¹ |  |
| Gal-β1,6-GlcNAc-Aoa(m)-GFKKG [neo-glycoprobe: Gal-β1,6-GlcNAc oxime-ligated to the peptide module N[Me]-O-Aoa-GFKKG] | 22700 M⁻¹ | 0.0208 s⁻¹ | 472 M⁻¹ s⁻¹ |  |
| Man-α1,2-Man-Aoa(m)-GFKKG | 78700 M⁻¹ | 0.013 s⁻¹ | 1020 M⁻¹ s⁻¹ | ka1 (Con A): 16800 M⁻¹ s⁻¹; KA1 (Con A): 126000 M⁻¹; kd1 (Con A): 0.133 s⁻¹; ka2 (Con A): 2.88 × 10^−2 RU^−1 s^−1; kd2 (Con A): 0.0706 s⁻¹ |
| Man-α1,3-Man-Aoa(m)-GFKKG | 87700 M⁻¹ | 0.0044 s⁻¹ | 386 M⁻¹ s⁻¹ | ka1 (Con A): 22800 M⁻¹ s⁻¹; KA1 (Con A): 345000 M⁻¹; kd1 (Con A): 0.0661 s⁻¹; ka2 (Con A): 3.78 × 10^−3 RU^−1 s^−1; kd2 (Con A): 0.0629 s⁻¹ |
| Man-α1,6-Man-Aoa(m)-GFKKG | 23800 M⁻¹ | 0.0173 s⁻¹ | 410 M⁻¹ s⁻¹ | ka1 (Con A): 8910 M⁻¹ s⁻¹; KA1 (Con A): 308000 M⁻¹; kd1 (Con A): 0.0289 s⁻¹; ka2 (Con A): 7.15 × 10^−4 RU^−1 s^−1; kd2 (Con A): 0.019 s⁻¹ |
| N[Me]-O-Aoa-GFKKG-amide [peptide module for oxime ligation] |  |  |  | binding to PDC-109 in words (PDC-109): undesirable, non-specific binding |
| Neu5Ac-α2,3-Gal-β1,4-GlcNAc-N[Me]-O-Aoa-GFKKG-amide [Neu5Ac-α2,3-Gal-β1,4-GlcNAc-Aoa(m)-GFKKG, neo-glycoprobe: Neu5Ac-α2,3-Gal-β1,4-GlcNAc oxime-ligated to the peptide module N[Me]-O-Aoa-GFKKG] | 12400 M⁻¹ | 0.00477 s⁻¹ | 99.9 M⁻¹ s⁻¹ | carbohydrate specificity of MAA in words (MAA; SPR binding responses on sialic acid glycoprobe chip): recognized only; ka (MAA; SPR, immobilized glycoprobe, MAA 250 nM to 1.9 μM, HBS-P pH 7.4 + CaCl2 5 mM, MnCl2 1 mM, 1:1 Langmuir model): 5.55 × 10^3 M^−^1 s^−^1; KA (MAA; SPR, immobilized glycoprobe, MAA 250 nM to 1.9 μM, 1:1 Langmuir model): 9.12 × 10^5 M^−^1 |
| Neu5Ac-α2,3/6-Gal-β1,4-Glc-N[Me]-O-Aoa-GFKKG-amide [Neu5Ac-α2,3/6-Gal-β1,4-Glc-Aoa(m)-GFKKG, neo-glycoprobe: Neu5Ac-α2,3/6-Gal-β1,4-Glc oxime-ligated to the peptide module N[Me]-O-Aoa-GFKKG] | 27700 M⁻¹ | 0.0081 s⁻¹ | 2120 M⁻¹ s⁻¹ |  |
| Neu5Ac-α2,6-Gal-β1,4-GlcNAc-N[Me]-O-Aoa-GFKKG-amide [Neu5Ac-α2,6-Gal-β1,4-GlcNAc-Aoa(m)-GFKKG] | 166000 M⁻¹ | 0.00253 s⁻¹ | 1880 M⁻¹ s⁻¹ | binding to PDC-109 in words (PDC-109): favored interaction; KA (SNA): 6.27 × 10^6 M^−^1; carbohydrate specificity of SNA in words (SNA): marked preference; ka (SNA; pH 7.4): 1.02 × 10^4 M^−^1 s^−^1 |
| B1 |  |  |  | binding result [1]: binds |

From publication PMC5979539 (International Journal of Molecular Sciences, 2018)
